Several values for one entry are separate records, joined by “and”; a condition that tells them apart may be missing. Equal entries are not always repeated. Where two headings read alike, the source gives them in different places.
How the values were obtained:
[1] = Plasma drug concentrations (pyrimethamine UPLC-MS/MS, VPA assay, unbound dolutegravir) in trial participants; assay type: in vivo, human; details: for PLWH with VPA plasma levels exceeding the therapeutic window (up to 100 mg/liter): day 7; for concentration at 6 h / concentration at 14 day: human, plasma, oral; for concentration at 6 h: read-out: Median plasma total VPA concentration; for concentration at 14 day: day 14, read-out: Median VPA Ctrough
Protocol: Self-reported adherence was assessed at each study visit, and empty pill strips were collected after the 2-week intervention phase. […] A gradient (0.3 ml/min) with two eluents was used (A: 2 mM ammonium acetate + 0.1% formic acid in water; B: 2 mM ammonium acetate + 0.1% formic acid in methanol). […] For measurement validation, we performed linearity, correctness, LOD and lower LOQ, repeatability, reproducibility, measurement uncertainty, robustness, and carryover. […] Unbound dolutegravir plasma concentrations were quantified with a validated UPLC-MS/MS bioquantification method as previously described ([61]).

[2] = system: BAF complex; assay: BAF complex target gene expression (IL-10, SOCS3, CBX7; control B-ACT) by RT-qPCR in participants; assay type: in vivo, human; details: day 0, 6 hours after first dose relative to pretreatment
Text: We reasoned that the effect on the expression of these gene targets at later time points (days 14 and 42) would be less useful as specific biomarker of BAF complex inhibition due to treatment interruptions and potential induction via other pathways. […] These findings are consistent with, and might be the consequence of, the generally lower plasma pyrimethamine Ctrough in participants that received the combined intervention regimen compared to those that received solely pyrimethamine.
RT-qPCR reactions were conducted using GoTaq qPCR Master Mix (Promega) following the manufacturer’s protocol. The following thermal cycling protocol was used for amplification: 3 min at 95°C, followed by 40 cycles of 95°C for 10 s and 60°C for 30 s. Expression data were calculated using the 2^−∆∆Ct methodology ([73]). Cyclophilin A was used as a housekeeping gene for the analysis. The list of primers is available in table S9.

[3] = system: HIV-1
Protocol: Because of low cell numbers in the baseline sample, LUNA-06 (combination arm, participant stopped at day 7) was excluded from this primary end point analysis.
For quantification of CA US HIV-1 RNA, CD4^+ T cells were isolated from peripheral blood mononuclear cells (PBMCs) by negative selection using EasySep Human CD4^+ T Cell Enrichment Cocktail ([…] Technologies). Isolation of CD4^+ T cells was performed on ice or at 4°C (unless indicated otherwise by the manufacturer). Approximately 1.5 × 10^6 CD4^+ T cells were lysed in triplicate with TRI reagent. Total RNA was isolated by the phenol/chloroform isolation method following the manufacturer’s instructions. A minimum of 150 ng of total RNA was deoxyribonuclease (DNase)–treated following the manufacturer’s instructions (DNase I, Amplification Grade, Invitrogen), and complementary DNA (cDNA) synthesis was performed in duplicate with SuperScript II (Invitrogen) following the manufacturer‘s instructions. Absolute quantification of CA US HIV-1 RNA was performed following a modified version of Pasternak et al. methodology ([72]). Briefly, the first round of nested amplification was performed in a final volume of 25 μl using 10 μl of cDNA, 2.5 μl of 10× PCR buffer (Life Technologies), 1 μl of 50 mM MgCl2 (Life Technologies), 1 μl of 10 mM deoxynucleotide triphosphate (dNTP) (Life Technologies), 0.075 μl of 100 μM US forward primer, 0.075 μl of 100 μM US reverse 1 primer, and 0.2 μl of Platinum Taq polymerase (Life Technologies) at 95°C for 5 min, followed by 15 cycles at 95°C for 30 s, 55°C for 30 s, and 72°C for […]. The second round of amplification was performed in a final volume of 25 μl using 2 μl of preamplified cDNA, 2.5 μl of […] PCR buffer (Life Technologies), 1 μl of 50 mM MgCl2 (Life Technologies), 1 μl of 10 mM dNTPs (Life Technologies), 0.05 μl of 100 μM US forward primer, 0.05 μl of 100 μM US reverse 2 primer, 0.0375 μl of US probe, and 0.2 μl of Platinum Taq polymerase (Life Technologies) at 95°C for 5 min, followed by 45 cycles at 95°C for 30 s and 60°C for 1 min. The list of primers and probe is available in table S9. The absolute number of US copies in the PCR was calculated using a standard curve ranging from 2 to 512 copies of a plasmid containing the full-length HIV-1 genome (pNL4.3.Luc.R-E-). […] The quantity of CA US HIV-1 RNA was expressed as the number of copies per 150 ng of input RNA in reverse transcription.
The measurements related to the end points CA US HIV-1 RNA, MS HIV-1 RNA, plasma HIV-1 RNA, and drug plasma levels were described as median with IQR or full range. […] The fold change difference per study arm from pretreatment CA US HIV-1 RNA levels to the time points 6 hours, day 14, and day 42 after first dosing was calculated by adding up the fold change per individual divided by the total number of measurements available per time point. We analyzed the primary end point by a generalized estimating equation model to evaluate whether any difference in the CA US HIV-1 RNA existed at any time point during the trial in any of the three interventional arms compared to the control arm. An interaction term of time and treatment was included. […] The difference between the observed and expected amount of CA US HIV-1 RNA was calculated, and combination therapy was considered synergistic if the difference and its 95% confidence interval were >0. Because of the number of participants in this pilot, all secondary end points were exploratory.

[4] = system: HIV-1; remark: listed apart in the source
Text: To achieve a constant and the earliest Tmax possible, participants received their first dose of the intervention regimen on day 0 in a fasted state. On day 0, cART and study medication intake were taken under direct supervision of the study staff. The 2-week intervention phase was followed by a 4-week post-intervention phase. Overall, participation involved 11 study visits. To obtain an additional post-intervention phase measurement for the inducible HIV-1 reservoir size, the study was amended and participants were asked to give written consent to an extra blood draw after the 4-week post-intervention phase ended. Plasma HIV-1 RNA levels (COBAS TaqMan; Roche, Basel, Switzerland; LOQ, 20 copies/ml) were monitored at all 11 visits. CD4^+ T cell counts were determined at screening, at the start and end of the intervention phase (days 0 and 14), at day 42, and at the post-intervention phase (≥day 42).

[5] = design: method as in PMID 22837004; details: assumed for the sampling design; fasted first dose; cited from earlier work
[6] = individual participants, one value each, below LOQ imputed as 16, listed as VPA
[7] = individual participants, one value each, /N, /P suffix not kept
[8] = individual participants, one value each, /N, /P suffix not kept, listed as VPA

SMILES: CCCC(CCC)C(=O)O [valproic acid]
- PLWH with VPA plasma levels exceeding the therapeutic window (up to 100 mg/liter) ([1]; those who continued VPA): three of nine
- PLWH with VPA plasma levels exceeding the therapeutic window (up to 100 mg/liter) ([1]; those whose therapy was adjusted for toxicity while receiving VPA): three of the five
- Drug detectable in plasma ([1]; day 42 (28 days after end of treatment)): No pyrimethamine or VPA was detectable
- concentration at 6 h ([1]; 30 mg/kg per day (divided into two equal doses), VPA monotherapy): 47.3 µg/mL
- concentration at 14 day ([1]; 30 mg/kg per day, VPA monotherapy, six PLWH with uninterrupted exposure): 84.8 µg/mL
- concentration at 6 h ([1]; combination treatment with pyrimethamine): 47.4 µg/mL
- concentration at 14 day ([1]; combination treatment, four PLWH with uninterrupted exposure): 113 µg/mL
- mRNA levels of BAF target genes (IL-10, SOCS3, CBX7) [2]: no increase
- Median CA US HIV-1 RNA compared to pretreatment levels ([3]; any time point): did not have significantly increased
- CA US HIVRNA copies/150 ng Total RNA Day 0, 6 hours [3, 6]: 42,74 copies/150 ng Total RNA and 53,04 copies/150 ng Total RNA and 19,23 copies/150 ng Total RNA and 101,51 copies/150 ng Total RNA and 51,59 copies/150 ng Total RNA and 10,16 copies/150 ng Total RNA and 16,00 copies/150 ng Total RNA
- CA US HIVRNA copies/150 ng Total RNA Day 14 [3, 6]: 28,40 copies/150 ng Total RNA and 97,80 copies/150 ng Total RNA and 16,00 copies/150 ng Total RNA and 47,89 copies/150 ng Total RNA and 161,79 copies/150 ng Total RNA and 18,41 copies/150 ng Total RNA and 18,82 copies/150 ng Total RNA
- CA US HIVRNA copies/150 ng Total RNA Day 42 [3, 6]: 49,74 copies/150 ng Total RNA and 59,03 copies/150 ng Total RNA and 16,00 copies/150 ng Total RNA and 52,98 copies/150 ng Total RNA and 59,33 copies/150 ng Total RNA and 22,83 copies/150 ng Total RNA
- CA US HIVRNA copies/150 ng Total RNA Day 0, pretreatment ([3]; individual participants, one value each, pretreatment baseline, below LOQ imputed as 16, listed as VPA): 95,16 copies/150 ng Total RNA and 39,10 copies/150 ng Total RNA and 16,00 copies/150 ng Total RNA and 76,70 copies/150 ng Total RNA and 12,93 copies/150 ng Total RNA and 22,90 copies/150 ng Total RNA
- Plasma HIV-1 RNA in the participants not remaining below LOQ ([4]; entire 6-week trial period, two on VPA, one on pyrimethamine, one on combination): < 50 copies/ml
- Plasma HIV-1 RNA, Day 0, 6hr [4, 7]: < 20
- Plasma HIV-1 RNA, Day 7 [4, 7]: < 20
- Plasma HIV-1 RNA, Day 10 [4, 7]: < 20
- Plasma HIV-1 RNA, Day 14 [4, 7]: < 20
- Plasma HIV-1 RNA, Day 15 [4, 7]: < 20
- Plasma HIV-1 RNA, Day 28 [4, 7]: < 20
- Plasma HIV-1 RNA, Day 42 [4, 7]: < 20
- Plasma HIV-1 RNA, Day 1 [4, 8]: < 20 (6×) and 41
- Plasma HIV-1 RNA, Day 21 [4, 8]: < 20 (6×) and 21
- Plasma HIV-1 RNA, Day 0, 0hr ([4]; individual participants, one value each, pretreatment, /N, /P suffix (genome not detected / detected below quantitation) not kept): < 20
- Tmax [5]: approximately 4 hours

— article PMC10017042 (Science Advances, 2023)
